According to patent US20240279220A1, “INDOLE COMPOUNDS AND METHODS OF USE” (Genzyme Corporation, priority 2021, published 2024):

Legend:
[1] = system: NBD1/3D; experiment: Aggregation analysis using differential static light scattering (DSLS), NBD1 thermal stability; type: binding, Human; details: ΔTagg versus DMSO control; compound at 100 μM
Method in brief: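 Purified NBD1 at 0.2 mg/ml in S200 buffer (pH 7.6, 2 mM ATP, 5 mM MgCl2, 1% glycerol) was heated with compound at 1 °C/min to 70 °C. Tagg taken from the light-scattering curve inflection point; ΔTagg = compound Tagg minus mean DMSO control Tagg.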

[2] = biological target: T1, CFTR (Homo sapiens, UniProt P13569, DEL508-508); experiment: TECC24 recording of CFTR-mediated transepithelial chloride transport in ΔF508 homozygous CF-HBE cells; type: cell-based; details: 10 μM test agent, 48 hours incubation, AUC of forskolin-stimulated IEQ divided by vehicle AUC, primary CF-HBE cells
T1 construct: Primary human bronchial epithelial cells from a ΔF508 homozygous CF donor; host or cells: primary human bronchial epithelial cells (CF-HBE), ΔF508 homozygous donor
Method in brief: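 ΔF508 homozygous primary bronchial epithelia exposed to compound 48 h at 36.5 °C, then transepithelial voltage and resistance recorded in pH 7.4 buffer with benzamil (10 μM), forskolin (10 μM) stimulation and CFTRinh-172 (20 μM) stop. Equivalent Cl⁻ current AUC vs vehicle gives efficacy; EC50 fitted with Hill slope fixed at 1.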

T1 sequence (P13569 with tags, fused parts or gaps DEL508-508): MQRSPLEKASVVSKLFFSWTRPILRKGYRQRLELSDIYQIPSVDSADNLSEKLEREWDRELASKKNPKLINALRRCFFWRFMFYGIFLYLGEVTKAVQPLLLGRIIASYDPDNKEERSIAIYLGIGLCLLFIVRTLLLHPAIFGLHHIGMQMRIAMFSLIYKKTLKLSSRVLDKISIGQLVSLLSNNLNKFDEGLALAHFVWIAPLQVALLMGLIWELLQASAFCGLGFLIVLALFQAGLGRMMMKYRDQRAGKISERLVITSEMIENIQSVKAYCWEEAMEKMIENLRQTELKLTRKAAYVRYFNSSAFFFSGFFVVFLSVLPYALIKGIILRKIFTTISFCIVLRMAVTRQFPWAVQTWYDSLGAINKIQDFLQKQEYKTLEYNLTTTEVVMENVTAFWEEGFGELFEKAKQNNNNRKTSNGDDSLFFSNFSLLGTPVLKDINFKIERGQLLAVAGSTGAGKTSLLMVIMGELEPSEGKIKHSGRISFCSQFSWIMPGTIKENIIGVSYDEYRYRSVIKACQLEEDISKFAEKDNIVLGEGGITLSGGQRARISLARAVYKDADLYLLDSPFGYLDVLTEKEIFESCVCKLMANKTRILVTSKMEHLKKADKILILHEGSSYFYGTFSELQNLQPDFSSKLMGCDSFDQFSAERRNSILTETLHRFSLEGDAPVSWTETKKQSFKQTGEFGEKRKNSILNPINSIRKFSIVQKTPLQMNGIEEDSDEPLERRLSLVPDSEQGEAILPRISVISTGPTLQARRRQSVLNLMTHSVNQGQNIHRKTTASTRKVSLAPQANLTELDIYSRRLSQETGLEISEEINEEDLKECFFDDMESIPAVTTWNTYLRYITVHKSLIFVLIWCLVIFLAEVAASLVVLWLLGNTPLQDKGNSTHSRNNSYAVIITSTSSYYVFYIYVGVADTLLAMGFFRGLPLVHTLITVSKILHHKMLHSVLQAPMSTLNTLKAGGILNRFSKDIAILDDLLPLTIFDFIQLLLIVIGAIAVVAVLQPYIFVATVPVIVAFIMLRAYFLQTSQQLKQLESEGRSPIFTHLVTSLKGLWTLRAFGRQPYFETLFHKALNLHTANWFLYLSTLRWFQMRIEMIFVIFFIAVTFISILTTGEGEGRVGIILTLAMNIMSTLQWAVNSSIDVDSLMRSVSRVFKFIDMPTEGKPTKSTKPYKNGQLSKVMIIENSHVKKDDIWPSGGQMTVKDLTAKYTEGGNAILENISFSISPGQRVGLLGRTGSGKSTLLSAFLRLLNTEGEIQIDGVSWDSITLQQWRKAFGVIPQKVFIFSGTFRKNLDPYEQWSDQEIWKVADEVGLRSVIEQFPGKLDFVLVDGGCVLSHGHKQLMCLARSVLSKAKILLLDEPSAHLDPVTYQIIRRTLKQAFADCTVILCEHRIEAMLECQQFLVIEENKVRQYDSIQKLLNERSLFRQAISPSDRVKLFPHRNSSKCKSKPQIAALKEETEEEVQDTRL

## CC(c1cccc(CCC(=O)O)c1F)n1ccc(-c2cc(Oc3c(F)cc4[nH]ccc4c3S(C)(=O)=O)ccc2F)n1 (single isomer, unassigned) [Example 41B, 3-(2-fluoro-3-(1-(3-(2-fluoro-5-((6-fluoro-4-(methylsulfonyl)-1H-indol-5-yl)oxy)phenyl)-1H-pyrazol-1-yl)ethyl)phenyl)propanoic acid]
[1]
  DSLS NBD1/3D Human Stability delta-T (° C.) @ 100 (μM): A (A: T ≥ 10° C.)
[2]
  TECC24 @ 10 μM over DMSO (AUC fold over DMSO): A (“A” refers to AUC @10 uM >= 12)

## Cc1c(Oc2ccc(F)c(-c3ncc([C@]4(c5cccc(CCC(=O)O)c5)C[C@H](O)CO4)[nH]3)c2)c(F)cc2[nH]ccc12 (racemic) [Example 274, rac-3-(3-((2r,4s)-2-(2-(2-Fluoro-5-((6-fluoro-4-methyl-1H-indol-5-yl)oxy)phenyl)-1H-imidazol-5-yl)-4-hydroxytetrahydrofuran-2-yl)phenyl)propanoic acid]
[1]
  DSLS NBD1/3D Human Stability delta-T (° C.) @ 100 (μM): A (A: T ≥ 10° C.)
[2]
  TECC24 @ 10 μM over DMSO (AUC fold over DMSO): C (“C” refers to AUC @ 10 uM <= 4)

## CS(=O)(=O)c1c(Oc2ccc(F)c(-c3ncc(C4(c5cccc(CCC(=O)O)c5)CCOC4)[nH]3)c2)c(F)cc2[nH]ccc12 (stereo not shown) [Example 45, 3-(3-(3-(2-(2-Fluoro-5-((6-fluoro-4-(methylsulfonyl)-1H-indol-5-yl)oxy)phenyl)-1H-imidazol-5-yl)tetrahydrofuran-3-yl)phenyl)propanoic acid]
[1]
  DSLS NBD1/3D Human Stability delta-T (° C.) @ 100 (μM): A (A: T ≥ 10° C.)
[2]
  TECC24 @ 10 μM over DMSO (AUC fold over DMSO): B (“B” refers to AUC @10 uM between 4-12)

## CC(C#N)(c1cccc(CCC(=O)O)c1)c1c[nH]c(-c2cc(Oc3c(F)cc4[nH]ccc4c3CC(F)(F)F)ccc2F)n1 (stereo not shown) [Example 52, 3-(3-(1-cyano-1-(2-(2-fluoro-5-((6-fluoro-4-(2,2,2-trifluoroethyl)-1H-indol-5-yl)oxy)phenyl)-1H-imidazol-4-yl)ethyl)phenyl)propanoic acid]
[1]
  DSLS NBD1/3D Human Stability delta-T (° C.) @ 100 (μM): B (B: 5-10° C.)
[2]
  TECC24 @ 10 μM over DMSO (AUC fold over DMSO): B (“B” refers to AUC @10 uM between 4-12)

## O=C(O)CCc1cccc(C2(c3cnc(-c4cc(Oc5c(F)cc6[nH]ccc6c5CC(F)(F)F)ccc4F)[nH]3)CCS(=O)(=O)CC2)c1 [Example 170, 3-(3-(4-(2-(2-fluoro-5-((6-fluoro-4-(2,2,2-trifluoroethyl)-1H-indol-5-yl)oxy)phenyl)-1H-imidazol-5-yl)-1,1-dioxidotetrahydro-2H-thiopyran-4-yl)phenyl)propanoic acid]
[1]
  DSLS NBD1/3D Human Stability delta-T (° C.) @ 100 (μM): B (B: 5-10° C.)
[2]
  TECC24 @ 10 μM over DMSO (AUC fold over DMSO): C (“C” refers to AUC @ 10 uM <= 4)

## CC(c1cnc(-c2cc(Oc3c(F)cc4[nH]ccc4c3CP(C)(C)=O)ccc2F)[nH]1)c1cccc(CCC(=O)O)c1F (single isomer, unassigned) [Example 133B, 3-(3-(1-(2-(5-((4-((dimethylphosphoryl)methyl)-6-fluoro-1H-indol-5-yl)oxy)-2-fluorophenyl)-1H-imidazol-5-yl)ethyl)-2-fluorophenyl)propanoic acid]
[1]
  DSLS NBD1/3D Human Stability delta-T (° C.) @ 100 (μM): A (A: T ≥ 10° C.)
[2]
  TECC24 @ 10 μM over DMSO (AUC fold over DMSO): C (“C” refers to AUC @ 10 uM <= 4)

## CC(C)OCCOCCC(c1cnc(-c2cc(Oc3c(F)cc4[nH]ccc4c3F)ccc2F)[nH]1)c1cccc(CCC(=O)O)c1F (single isomer, unassigned) [Example 130B, 3-(3-(1-(2-(5-((4,6-difluoro-1H-indol-5-yl)oxy)-2-fluorophenyl)-1H-imidazol-5-yl)-3-(2-isopropoxyethoxy)propyl)-2-fluorophenyl)propanoic acid]
[1]
  DSLS NBD1/3D Human Stability delta-T (° C.) @ 100 (μM): A (A: T ≥ 10° C.)
[2]
  TECC24 @ 10 μM over DMSO (AUC fold over DMSO): A (“A” refers to AUC @10 uM >= 12)

## CC(c1nnc(-c2cc(Oc3c(F)cc4[nH]ccc4c3F)ccc2F)[nH]1)c1cccc(CCC(=O)O)c1F (single isomer, unassigned) [Example 252A, 3-(3-(1-(5-(5-((4,6-difluoro-1H-indol-5-yl)oxy)-2-fluorophenyl)-4H-1,2,4-triazol-3-yl)ethyl)-2-fluorophenyl)propanoic acid]
[1]
  DSLS NBD1/3D Human Stability delta-T (° C.) @ 100 (μM): B (B: 5-10° C.)
[2]
  TECC24 @ 10 μM over DMSO (AUC fold over DMSO): A (“A” refers to AUC @10 uM >= 12)

## [2H]c1c[nH]c2c(F)c(F)c(Oc3ccc(F)c(-c4nc(C(C#N)(c5cc(F)cc(CCC(=O)O)c5)C([2H])([2H])[2H])c[nH]4)c3)c(F)c12 (single isomer, unassigned) [Example 67B, 3-(3-(1-cyano-1-(2-(2-fluoro-5-((4,6,7-trifluoro-1H-indol-5-yl-3-d)oxy)phenyl)-1H-imidazol-4-yl)ethyl-2,2,2-d3)-5-fluorophenyl)propanoic acid]
[1]
  DSLS NBD1/3D Human Stability delta-T (° C.) @ 100 (μM): B (B: 5-10° C.)
[2]
  TECC24 @ 10 μM over DMSO (AUC fold over DMSO): C (“C” refers to AUC @ 10 uM <= 4)

## CC(c1cccc(CCC(=O)O)c1)(c1cnc(-c2cc(Oc3c(F)cc4[nH]ccc4c3S(C)(=O)=O)ccc2F)[nH]1)C(F)F (stereo not shown) [Example 276, 3-(3-(1,1-Difluoro-2-(2-(2-fluoro-5-((6-fluoro-4-(methylsulfonyl)-1H-indol-5-yl)oxy)phenyl)-1H-imidazol-5-yl)propan-2-yl)phenyl)propanoic acid]
[1]
  DSLS NBD1/3D Human Stability delta-T (° C.) @ 100 (μM): A (A: T ≥ 10° C.)
[2]
  TECC24 @ 10 μM over DMSO (AUC fold over DMSO): C (“C” refers to AUC @ 10 uM <= 4)

## CC(C)(C)C(c1cccc(CCC(=O)O)c1)c1cnc(-c2cc(Oc3c(F)cc4[nH]ccc4c3F)ccc2F)[nH]1 (stereo not shown) [Example 277, 3-(3-(1-(2-(5-((4,6-difluoro-1H-indol-5-yl)oxy)-2-fluorophenyl)-1H-imidazol-5-yl)-2,2-dimethylpropyl)phenyl)propanoic acid]
[1]
  DSLS NBD1/3D Human Stability delta-T (° C.) @ 100 (μM): B (B: 5-10° C.)
[2]
  TECC24 @ 10 μM over DMSO (AUC fold over DMSO): A (“A” refers to AUC @10 uM >= 12)

## O=C(O)CCc1cccc(Cc2cnc(-c3cc(Oc4c(F)c(F)c5[nH]ccc5c4F)ccc3F)[nH]2)c1F [Example 121, 3-(2-fluoro-3-((2-(2-fluoro-5-((4,6,7-trifluoro-1H-indol-5-yl)oxy)phenyl)-1H-imidazol-5-yl)methyl)phenyl)propanoic acid]
[1]
  DSLS NBD1/3D Human Stability delta-T (° C.) @ 100 (μM): B (B: 5-10° C.)
[2]
  TECC24 @ 10 μM over DMSO (AUC fold over DMSO): A (“A” refers to AUC @10 uM >= 12)

## CS(=O)(=O)Cc1c(Oc2ccc(F)c(-c3ncc(Cc4cccc(CCC(=O)O)c4F)[nH]3)c2)c(F)cc2[nH]ccc12 [Example 279, 3-(2-Fluoro-3-((2-(2-fluoro-5-((6-fluoro-4-((methylsulfonyl)methyl)-1H-indol-5-yl)oxy)phenyl)-1H-imidazol-5-yl)methyl)phenyl)propanoic acid]
[1]
  DSLS NBD1/3D Human Stability delta-T (° C.) @ 100 (μM): A (A: T ≥ 10° C.)
[2]
  TECC24 @ 10 μM over DMSO (AUC fold over DMSO): A (“A” refers to AUC @10 uM >= 12)

## Cc1c(Oc2ccc(F)c(-c3ncc(C(C)(O)c4cccc(CCC(=O)O)n4)[nH]3)c2)c(F)cc2[nH]ccc12 (stereo not shown) [Example 272, 3-(6-(1-(2-(2-fluoro-5-((6-fluoro-4-methyl-1H-indol-5-yl)oxy)phenyl)-1H-imidazol-5-yl)-1-hydroxyethyl)pyridin-2-yl)propanoic acid]
[1]
  DSLS NBD1/3D Human Stability delta-T (° C.) @ 100 (μM): B (B: 5-10° C.)
[2]
  TECC24 @ 10 μM over DMSO (AUC fold over DMSO): B (“B” refers to AUC @10 uM between 4-12)
